Values quoted from earlier work in patent US9386793B2, “Compositions and methods for treating obesity and related disorders by characterizing and restoring mammalian bacterial microbiota” (New York University, priority 2010, dated 2016).

What was measured:
Sporacetegenium = tested on: Sporacetegenium; parameters: key: + facilitates growth; w weak growth promotion; +/− growth variable dependent on strain; − no growth effect; conditions: substrate for fermentation
Clostridium cocleatum = tested on: Clostridium cocleatum; parameters: key: + facilitates growth; w weak growth promotion; +/− growth variable dependent on strain; − no growth effect; conditions: substrate for fermentation
Oscillibacter = tested on: Oscillibacter; parameters: key: + facilitates growth; w weak growth promotion; +/− growth variable dependent on strain; − no growth effect; conditions: substrate for fermentation
Holdemania = tested on: Holdemania; parameters: key: + facilitates growth; w weak growth promotion; +/− growth variable dependent on strain; − no growth effect; conditions: substrate for fermentation
Johnsonella = tested on: Johnsonella; parameters: key: + facilitates growth; w weak growth promotion; +/− growth variable dependent on strain; − no growth effect; conditions: substrate for fermentation
Coprobacillus = tested on: Coprobacillus; parameters: key: + facilitates growth; w weak growth promotion; +/− growth variable dependent on strain; − no growth effect; conditions: substrate for fermentation
[1] = tested on: Coprobacillus, Sporacetigenium, Holdemania, or Clostridium cocleatum; conditions: but not of Johnsonella and Oscillibacter

In the case of `O=C[C@H](O)[C@H](O)[C@H](O)CO` [Ribose], the “growth of Sporacetegenium” value (Sporacetegenium) is listed as “+/−”, the “growth of Clostridium cocleatum” value (Clostridium cocleatum) is listed as “−” and the “growth of Oscillibacter” value (Oscillibacter) is listed as “+”. For the same compound, the “growth of Holdemania” value (Holdemania) was “w”, the “growth of Johnsonella” value (Johnsonella) was “−” and the “growth of Coprobacillus” value (Coprobacillus) was “−”.
For `O=c1ccc2cc(O[C@@H]3O[C@H](CO)[C@@H](O)[C@H](O)[C@H]3O)c(O)cc2o1` [Esculin], the “growth of Holdemania” value (Holdemania) is listed as “+”, the “growth of Johnsonella” value (Johnsonella) is listed as “−” and the “growth of Coprobacillus” value (Coprobacillus) is listed as “−”.
For `O=C(CO)[C@@H](O)[C@H](O)[C@H](O)CO` [Fructose], the “growth of Sporacetegenium” value (Sporacetegenium) is given as “+”, the “growth of Clostridium cocleatum” value (Clostridium cocleatum) is given as “+” and the “growth of Oscillibacter” value (Oscillibacter) is given as “−”. For the same compound, the “growth of Holdemania” value (Holdemania) was “+”, the “growth of Johnsonella” value (Johnsonella) was “−” and the “growth and metabolic activity of genera (as follows from Table 1)” value (“growth and metabolic activity of genera” below) [1] was “stimulate growth and metabolic activity of two or more genera”. For the same compound, the “growth of Coprobacillus” value (Coprobacillus) was “+”.
In the case of `O=C[C@H](O)[C@@H](O)[C@H](O[C@@H]1O[C@H](CO)[C@@H](O)[C@H](O)[C@H]1O)[C@H](O)CO` [Cellobiose], the “growth of Sporacetegenium” value (Sporacetegenium) is listed as “w”, the “growth of Clostridium cocleatum” value (Clostridium cocleatum) is listed as “+” and the “growth of Oscillibacter” value (Oscillibacter) is listed as “−”. The “growth of Holdemania” value (Holdemania) was “w”, the “growth of Johnsonella” value (Johnsonella) was “−” and the “growth and metabolic activity of genera” value [1] was “stimulate growth and metabolic activity of two or more genera”. The “growth of Coprobacillus” value (Coprobacillus) was “+”.
For Inulin, the “growth of Clostridium cocleatum” value (Clostridium cocleatum) is listed as “+”.
For `C[C@H](O)[C@H](O)[C@@H](O)[C@@H](O)C=O` [Rhamnose], the “growth of Sporacetegenium” value (Sporacetegenium) is listed as “w”, the “growth of Clostridium cocleatum” value (Clostridium cocleatum) is listed as “−” and the “growth of Oscillibacter” value (Oscillibacter) is listed as “−”. For the same compound, the “growth of Holdemania” value (Holdemania) was “w”, the “growth of Johnsonella” value (Johnsonella) was “−” and the “growth of Coprobacillus” value (Coprobacillus) was “−”.
For `OC[C@H]1O[C@H](O[C@H]2O[C@H](CO)[C@@H](O)[C@H](O)[C@H]2O)[C@H](O)[C@@H](O)[C@@H]1O` [Trehalose], the “growth of Sporacetegenium” value (Sporacetegenium) is given as “w”, the “growth of Clostridium cocleatum” value (Clostridium cocleatum) is given as “−” and the “growth of Oscillibacter” value (Oscillibacter) is given as “−”. For the same compound, the “growth of Holdemania” value (Holdemania) was “w”, the “growth of Johnsonella” value (Johnsonella) was “−” and the “growth and metabolic activity of genera” value [1] was “stimulate growth and metabolic activity of two or more genera”. The “growth of Coprobacillus” value (Coprobacillus) was “+”.
For `OC[C@H]1O[C@H](O[C@H]2[C@H](O)[C@@H](O)[C@H](O)O[C@@H]2CO)[C@H](O)[C@@H](O)[C@@H]1O` [Maltose], the “growth of Sporacetegenium” value (Sporacetegenium) is given as “+”, the “growth of Clostridium cocleatum” value (Clostridium cocleatum) is given as “+” and the “growth of Oscillibacter” value (Oscillibacter) is given as “−”. For the same compound, the “growth of Holdemania” value (Holdemania) was “+”, the “growth of Johnsonella” value (Johnsonella) was “−” and the “growth and metabolic activity of genera” value [1] was “stimulate growth and metabolic activity of two or more genera”. The “growth of Coprobacillus” value (Coprobacillus) was “+”.
For `O=C[C@@H](O)[C@H](O)[C@H](O)CO` [D-arabinose], the “growth of Oscillibacter” value (Oscillibacter) is listed as “−”.
In the case of `O=C[C@H](O)[C@@H](O)[C@H](O)CO` [Xylose], the “growth of Sporacetegenium” value (Sporacetegenium) is given as “+”, the “growth of Clostridium cocleatum” value (Clostridium cocleatum) is given as “−” and the “growth of Oscillibacter” value (Oscillibacter) is given as “+”. The “growth of Holdemania” value (Holdemania) was “w”, the “growth of Johnsonella” value (Johnsonella) was “−” and the “growth of Coprobacillus” value (Coprobacillus) was “−”.
In the case of `OCc1ccccc1O[C@@H]1O[C@H](CO)[C@@H](O)[C@H](O)[C@H]1O` [Salicin], the “growth of Sporacetegenium” value (Sporacetegenium) is listed as “−”, the “growth of Clostridium cocleatum” value (Clostridium cocleatum) is listed as “w” and the “growth of Oscillibacter” value (Oscillibacter) is listed as “−”. For the same compound, the “growth of Holdemania” value (Holdemania) was “+”, the “growth of Johnsonella” value (Johnsonella) was “−” and the “growth and metabolic activity of genera” value [1] was “stimulate growth and metabolic activity of two or more genera”. For the same compound, the “growth of Coprobacillus” value (Coprobacillus) was “+”.
In the case of `OC[C@H]1O[C@@H](O[C@H]2[C@H](O)[C@@H](O)C(O)O[C@@H]2CO)[C@H](O)[C@@H](O)[C@H]1O` (stereo partly shown) [Lactose], the “growth of Sporacetegenium” value (Sporacetegenium) is listed as “w”, the “growth of Clostridium cocleatum” value (Clostridium cocleatum) is listed as “+” and the “growth of Oscillibacter” value (Oscillibacter) is listed as “−”. The “growth of Holdemania” value (Holdemania) was “+”, the “growth of Johnsonella” value (Johnsonella) was “−” and the “growth and metabolic activity of genera” value [1] was “stimulate growth and metabolic activity of two or more genera”. For the same compound, the “growth of Coprobacillus” value (Coprobacillus) was “+”.
For `OC[C@H]1O[C@H](OCC2O[C@@H](O)[C@H](O)[C@@H](O)[C@@H]2O)[C@H](O)[C@@H](O)[C@H]1O` (stereo partly shown) [Mellibiose], the “growth of Sporacetegenium” value (Sporacetegenium) is given as “w”, the “growth of Clostridium cocleatum” value (Clostridium cocleatum) is given as “+” and the “growth of Oscillibacter” value (Oscillibacter) is given as “−”. The “growth of Holdemania” value (Holdemania) was “w”, the “growth of Johnsonella” value (Johnsonella) was “−” and the “growth and metabolic activity of genera” value [1] was “stimulate growth and metabolic activity of two or more genera”.
For `O=C[C@@H](O)[C@H](O)[C@H](O)CO` [Arabinose], the “growth of Sporacetegenium” value (Sporacetegenium) is given as “+”, the “growth of Clostridium cocleatum” value (Clostridium cocleatum) is given as “−” and the “growth of Oscillibacter” value (Oscillibacter) is given as “+/−^a”. The “growth of Holdemania” value (Holdemania) was “w”, the “growth of Johnsonella” value (Johnsonella) was “−” and the “growth of Coprobacillus” value (Coprobacillus) was “−”.
In the case of `O=C[C@H](O)[C@@H](O)[C@@H](O)CO` [L-arabinose], the “growth of Oscillibacter” value (Oscillibacter) is listed as “+”.
In the case of `OC[C@H]1O[C@H](OC[C@H]2O[C@H](O[C@]3(CO)O[C@H](CO)[C@@H](O)[C@@H]3O)[C@H](O)[C@@H](O)[C@@H]2O)[C@H](O)[C@@H](O)[C@H]1O` [Raffinose], the “growth of Sporacetegenium” value (Sporacetegenium) is given as “w”, the “growth of Clostridium cocleatum” value (Clostridium cocleatum) is given as “+” and the “growth of Oscillibacter” value (Oscillibacter) is given as “−”. For the same compound, the “growth of Holdemania” value (Holdemania) was “w”, the “growth of Johnsonella” value (Johnsonella) was “−” and the “growth and metabolic activity of genera” value [1] was “stimulate growth and metabolic activity of two or more genera”. For the same compound, the “growth of Coprobacillus” value (Coprobacillus) was “−”.
For `O=C[C@H](O)[C@@H](O)[C@@H](O)[C@H](O)CO` [Galactose], the “growth of Sporacetegenium” value (Sporacetegenium) is listed as “w”, the “growth of Clostridium cocleatum” value (Clostridium cocleatum) is listed as “+” and the “growth of Oscillibacter” value (Oscillibacter) is listed as “−”. The “growth and metabolic activity of genera” value [1] was “stimulate growth and metabolic activity of two or more genera” and the “growth of Coprobacillus” value (Coprobacillus) was “+”.
In the case of `OC[C@H]1O[C@@](CO)(O[C@H]2O[C@H](CO)[C@@H](O)[C@H](O)[C@H]2O)[C@@H](O)[C@@H]1O` [Sucrose], the “growth of Sporacetegenium” value (Sporacetegenium) is given as “w”, the “growth of Clostridium cocleatum” value (Clostridium cocleatum) is given as “+” and the “growth of Oscillibacter” value (Oscillibacter) is given as “−”. For the same compound, the “growth of Holdemania” value (Holdemania) was “+”, the “growth of Johnsonella” value (Johnsonella) was “−” and the “growth and metabolic activity of genera” value [1] was “stimulate growth and metabolic activity of two or more genera”. For the same compound, the “growth of Coprobacillus” value (Coprobacillus) was “+”.
